Assay results as given in US20240350647A1, “STING SENSITIZING AGENTS” (STipe Therapeutics ApS, priority 2023, published 2024).
Where a SMILES comes first, the peptide text is derived from it. Bridges are numbered along the chain shown (N, C = ends). Where no end group is shown, it is not given here. [ ]: non-standard residue; d: D form. The star is where a group is joined. C16 diacid = O=C(O)CCCCCCCCCCCCCCC(=O)*; AEEA = NCCOCCOCC(=O)O

How the values were obtained:
CD4+ T cells = assay: Dendritic Cell-T cell (DC-T) proliferation assay (ProImmune); conditions: 22 donors; Percentage Stimulation above Background ≥0.5%, SEM=2; peptides 0.34 μM
Description: A panel of peripheral blood mononuclear cell (PBMC) samples from healthy human donors was selected from the ProImmune Ltd (UK) cell bank. Each PBMC sample was HLA (Human Leukocyte Antigen)-typed and stored in liquid nitrogen (vapor-phase) prior to use. The panel was selected so that HLA class II alleles known to be highly expressed in the global population were well represented (data not shown). Donors were predominantly selected by DRB1 allele expression.
A Dendritic Cell-T cell (DC-T) proliferation assay (ProImmune Ltd) was used to identify the presence or potential T cell epitopes within the peptides. Adherent donor PBMCs were cultured with appropriate growth factors to generate monocyte-derived DCs. DCs were then loaded with a control (control 1 and control 2), the peptide (Agent 1, Agent 2, and Agent 3, see FIG. 8A) or left untreated. The peptides were loaded at a final concentration of 0.34 μM.
Mature antigen-loaded DCs were then co-cultured at a fixed ratio with autologous CFSE-labelled T cells in multi-well plates. Each test condition was set up in eight replicate wells and cells were incubated for 7 days. At the end of the incubation period, cell samples were stained with anti-CD4 antibody, then washed and fixed for by flow cytometric analysis. Proliferation was determined by measuring a decrease in CFSE intensity.
Data were compiled to determine antigen-induced proliferation per individual donor, calculated as Percentage Stimulation above Background. The frequency of positive donor cell responses (Percentage Antigenicity) was calculated as the proportion of responding donors out of total donors. Values were then standardized against the strength of response (an average of the Percentage Stimulation value obtained across accepted donors for each protein) to give a response index (RI).
Data obtained by flow cytometric evaluation of cell samples was analyzed using FlowJo Software (Tree Star, Inc.). The number of CFSE-dim (i.e., proliferating) cells was determined for each sample in eight replicate wells. Counts for the CD4^+ CFSE dim population in each sample were expressed as a proportion of the total CD4^+ population. The eight replicate values were then used to calculate Percentage Stimulation above Background (proportion of CD4^+ CFSE dim cells with antigen stimulation minus the proportion of CD4^+ CFSE dim cells without antigen stimulation).
Background threshold values are based on data from unstimulated cells for which a maximum acceptable resting proliferation threshold is established.
In evaluating antigenicity, it is also appropriate to take account of the frequency of donor cell responses across the study cohort. A positive response (Percentage Stimulation above Background ≥0.5%) in 2 or more independent donor samples is considered indicative of a potential T cell epitope.
Depending on the size of the study, (20, 40 or 50 donors), two responding donors sets a threshold of 10%, 5% or 4% respectively. Thus, following calculation of Percentage Stimulation above Background, the frequency of positive donor cell responses (Percentage Antigenicity) is expressed as the proportion of responding donors out of total accepted donors screened.
When calculating the antigenicity of a protein it is important to consider the strength of a response as well as the frequency of that response. This is because some binding responses may be pan-allele, but these responses may not be very strong. The strength of positive donor cell responses was determined by taking an average of the percentage stimulation value obtained across accepted donors for each protein. Determining a Response Index (RI) through the multiplication of strength and frequency values is more representative of the level of antigenicity.

FIG. 9 = assay: FIG. 9
Description: Table printed on a drawing sheet, FIG. 9
The patent's description of the figure: FIG. 9. In vitro metabolic stability in blood.
First reader's note: Each column is one agent and each row gives its half-life in blood of one species at 37 °C; the test concentration is printed in the row label, or in the cells for human.

IFN-β = assay: Stimulation and sensitization assay in THP1 cells, IFN-β release (ELISA); format: cell-based, human; conditions: with 2 μM Agent 1
Description: THP1 cells were purchased from ATCC (TIB-202™) and cultured in RPMI 1640 supplemented with 10% FBS and 1% Penicillin/Streptomycin (P/S) at 37° C. and 5% CO2. Passaging of THP1 cells was kept below 20 passages.
ADU-S100 was dissolved according to manufacturer's protocol (tlrl-nacda2r) to 0.5 mg/mL in LAL and subsequently diluted in R10. diABZI Compound 3 was diluted from a 1 mM stock in 100% DMSO into R10. Agent 1 was dissolved to a stock solution of 1250 μM in 50% DMSO, 25 mM HEPES. Concentration of dissolved Agent 1 was determined by A280 measurement using Synergy HI (Biotek Gen5 SW). Subsequently, Agent 1 dilutions were prepared in RPMI 1640, 10% FBS, 1% P/S (R10).
Concentrations of CXCL10 and IFN-β in the collected supernatants were determined by Duo-Set ELISA from R&D. Absorbance measurements at 450/570 nm and quantification were done using Synergy HI plate reader (Biotek Gen5 SW), Microsoft Excel and GraphPad prism v. 9.3.1.
Data analysis and statistical analysis were done using GraphPad prism 9.3.1. […]
Dip: is the plateau in the middle of the curve, corresponding to EMax, same unite as y-axis. The EMax determined here are not derived from this regression, due to the limitations using bell shaped dose response. Instead, EMax-values were determined as the maximum response at any given STING agonist concentration for both IFN-β and CXCL10 from all experiments. […]

FIG. 10C = assay: FIG. 10C
Description: Table printed on a drawing sheet, FIG. 10C
(§1) The patent's description of the figure: FIGS. 10A-10C. Pharmacokinetic profile and parameter for peptides after intravenous administration. FIG. 10A) Mouse PK data (10 mg/kg, bolus IV, n=3 per timepoint). FIG. 10B) Rat PK data (10 mg/kg, bolus IV, n=3 per timepoint). FIG. 10C) Non-human primate (NHP) PK data (4 mg/kg, 30 min IV infusion, n=3). Error bars represent the standard deviation (SD).
First reader's note: The species NHP stands in the head column of row 2, and the plot legend on the same sheet gives the dosing as 4 mg/kg (30-min IV) for both agents.

FIG. 10B = assay: FIG. 10B
Description: Table printed on a drawing sheet, FIG. 10B
as §1
First reader's note: Rat PK parameters; the plot legend on the same sheet gives 10 mg/kg (IV) for both agents, and the top-left cell 'PK parameters / rat' spans the first two rows.

FIG. 10A = assay: FIG. 10A
Description: Table printed on a drawing sheet, FIG. 10A
as §1
First reader's note: Mouse PK parameters; the legend of the plot on the same sheet gives 10 mg/kg (IV) for both agents.

## KKYKNIVLLKGLEVINDYHFGRKKRRQRRRPQ-NH2 [Agent 2, reference compound]
CD4+ T cells
  Response Index (RI): 0.445
  percentage antigenicity: 31.82%

## KKYKNIVLLKGLEVINDYHFGRKKRRQRRRPQ-NH2 [Agent 2 T½ (min)]
FIG. 9
  Mouse (@ 5.0 µg/mL): 4 min
  Rat (@ 5.0 µg/mL): 3 min

## Nc1nc2c(ncn2[C@@H]2O[C@@H]3COP(=O)(O)O[C@H]4[C@@H](O)[C@H](n5cnc6c(N)ncnc65)O[C@@H]4COP(=O)(O)O[C@@H]2[C@@H]3O)c(=O)[nH]1 [2′3′-cGAMP, cyclic 2′3′ GMP-AMP]
IFN-β
  EC50 of cGAMP for IFN expression: around 20 μg/mL

## CC[C@H](C)[C@H](NC(=O)[C@H](CC(N)=O)NC(=O)[C@H](CCCCN)NC(=O)[C@H](C)NC(=O)[C@H](CCCCN)NC(=O)[C@@H](N)CCCCN)C(=O)N[C@H](C(=O)N[C@@H](CC(C)C)C(=O)N[C@@H](CC(C)C)C(=O)N[C@@H](CCCCN)C(=O)NCC(=O)N[C@@H](CC(C)C)C(=O)N[C@@H](CCC(=O)O)C(=O)N[C@H](C(=O)N[C@H](C(=O)N[C@@H](CC(N)=O)C(=O)N[C@@H](CC(=O)O)C(=O)N[C@@H](Cc1c[nH]c2ccccc12)C(=O)N[C@@H](Cc1c[nH]cn1)C(=O)N[C@@H](Cc1ccccc1)C(=O)N[C@H]1CSSC[C@@H](C(N)=O)NC(=O)[C@@H](CCCNC(=N)N)NC(=O)[C@H](CCCNC(=N)N)NC(=O)[C@@H](CCCCN)NC(=O)[C@H](CCCCN)NC(=O)[C@@H](CCCNC(=N)N)NC(=O)CNC(=O)[C@@H](CCCNC(=N)N)NC(=O)[C@H](CCCNC(=N)N)NC(=O)[C@@H](CCCNC(=N)N)NC1=O)[C@@H](C)CC)C(C)C)C(C)C [Agent 3] (H-KKAKNIVLLKGLEVINDWHFC[dR]R[dR]G[dR]K[dK]R[dR]C-NH2; disulfide 21-31; N-terminus assumed)
CD4+ T cells
  Response Index (RI): 0.306
  percentage antigenicity: 22.73%

## KKYKNIVLLKGLEVINDYHFGRKKRRQRRRPQ-NH2 [Agent 2]
FIG. 10C
  AUC0-inf (ng·h/mL): 1,250 ng·h/mL
  C0 (ng/mL): 2,760 ng/mL
  Clobs: 53.8 mL/min/kg
FIG. 10B
  AUC0-inf: 225 ng·h/mL
  Clobs: 742 mL/min/kg
FIG. 10B; rat, in vivo, iv, 10 mg/kg
  C0: 1730 ng/mL
FIG. 10A
  AUC0-inf: 373 ng·h/mL
  Clobs: 447 mL/min/kg
FIG. 10A; mouse, in vivo, iv, 10 mg/kg
  C0: 3910 ng/mL

## CC[C@H](C)[C@H](NC(=O)[C@H](CC(N)=O)NC(=O)[C@H](CCCCN)NC(=O)[C@H](C)NC(=O)[C@H](CCCCN)NC(=O)[C@H](CCCCN)NC(=O)COCCOCCNC(=O)COCCOCCNC(=O)CCCCCCCCCCCCCCC(=O)O)C(=O)N[C@H](C(=O)N[C@@H](CC(C)C)C(=O)N[C@@H](CC(C)C)C(=O)N[C@@H](CCCCN)C(=O)NCC(=O)N[C@@H](CC(C)C)C(=O)N[C@@H](CCC(=O)O)C(=O)N[C@H](C(=O)N[C@H](C(=O)N[C@@H](CC(N)=O)C(=O)N[C@@H](CC(=O)O)C(=O)N[C@@H](Cc1c[nH]c2ccccc12)C(=O)N[C@@H](Cc1c[nH]cn1)C(=O)N[C@@H](Cc1ccccc1)C(=O)N[C@H]1CSSC[C@@H](C(N)=O)NC(=O)[C@@H](CCCNC(=N)N)NC(=O)[C@H](CCCNC(=N)N)NC(=O)[C@@H](CCCCN)NC(=O)[C@H](CCCCN)NC(=O)[C@@H](CCCNC(=N)N)NC(=O)CNC(=O)[C@@H](CCCNC(=N)N)NC(=O)[C@H](CCCNC(=N)N)NC(=O)[C@@H](CCCNC(=N)N)NC1=O)[C@@H](C)CC)C(C)C)C(C)C [Agent 1 T½ (min)] ({C16 diacid-AEEA-AEEA}-KKAKNIVLLKGLEVINDWHFC[dR]R[dR]G[dR]K[dK]R[dR]C-NH2; disulfide 21-31)
FIG. 9
  Mouse (@ 5.0 µg/mL): 174 min
  NHP (@ 4.4 µg/mL): 172 min
  Rat (@ 5.0 µg/mL): 86 min
